“And” between values parts separate entries of the source, which are not always exact repeats. Identical values can stand only once. Like-named read-outs stand apart in the source and are kept apart here.
What was measured:
[1] = tested on: maize pollen; assay: Relative ROS level in maize pollen (ROS detection kit, fluorometry); type: cell-based
Experimental: The red channel or bright channel of the photo was analyzed, and the ROS level was represented by the light intensity of the wavelength with the largest proportion. The relative ROS level in a reproductive tissue refers to a ratio of the ROS level of the reproductive tissue to the ROS level in the control group (40% sucrose).
Taking maize pollen as an example, the experiment of a series of compounds that may affect the ROS level in the maize pollen was tested.
All reagents are dissolved in 40% sucrose. The relative ROS levels were from 6-7 measurements.

[2] = tested on: sperm cells of maize pollen; assay: DNA fragmentation in sperm cells of treated maize pollen (single sperm amplified sequencing); details: treated pollen vs 40% sucrose control
Text: DNA fragmentation (which is one of the characteristics of haploid) in the treated pollen is detected.
Release sperm cells on the slide and separate a single sperm for amplified sequencing (Sigma WGA4 kit).

[3] = bright channel, ratio to 40% sucrose control, final concentration as listed per compound in Table 5, 6-7 measurements
[4] = red channel, ratio to 40% sucrose control, final concentration as listed per compound in Table 5, 6-7 measurements

Row | Compound | Relative ROS Level Bright [1, 3] | Relative ROS Level Red [1, 4] | further results
1 | PE_18:1 [Compound 23] | 0.92 ± 0.08 | 0.98 ± 0.04 | 
2 | PI_18:1 [Compound 24] | 0.81 ± 0.05 | 0.88 ± 0.06 | 
3 | PG_18:1 [Compound 26] | 0.32 ± 0.00 | 0.33 ± 0.00 | 
4 | OO [Hydrogen Peroxide, Hydrogen peroxide] |  |  | Proportion of fragmentation compared with control group [2]: higher proportion of fragmentation
5 | 1,2-Octadecyl Phosphatidylinositol Di-4,5-Phosphate [Compound 5] | 1.06 ± 0.06 | 1.05 ± 0.07 | 
6 | C/C1=C\[C@H](C)C[C@H](C)OC(=O)C[C@H](c2ccc(O)cc2)NC(=O)[C@@H](Cc2c(Br)[nH]c3ccccc23)N(C)C(=O)[C@H](C)NC(=O)[C@@H](C)C1 [Compound 6, Jasplakinolide] | 1.79 ± 0.16 | 1.77 ± 0.16 | 
7 | CC(=O)OC(C)(C)/C=C/C(=O)[C@](C)(O)[C@H]1[C@H](O)C[C@@]2(C)[C@@H]3CC=C4[C@@H](C=C(O)C(=O)C4(C)C)[C@]3(C)C(=O)C[C@]12C [Compound 7, Cucurbitacin E] | 1.37 ± 0.02 | 1.31 ± 0.08 | 
8 | O=C(NCCN1CCC(n2c(=O)[nH]c3ccccc32)CC1)c1cc2cc(F)ccc2[nH]1 [Compound 13] | 1.35 ± 0.06 | 1.34 ± 0.07 | 
9 | O=[N+]([O-])[O-].O=[N+]([O-])[O-].[Ca+2] [Compound 2, calcium nitrate] |  |  | Relative ROS Level Bright ([1]; bright channel, final concentration 1.83 mM, ratio to 40% sucrose control): 2.57 ± 0.15; Relative ROS Level Bright ([1]; bright channel, final concentration 18.3 mM, ratio to 40% sucrose control): 3.08 ± 0.12; Relative ROS Level Red ([1]; red channel, final concentration 1.83 mM, ratio to 40% sucrose control): 2.55 ± 0.21; Relative ROS Level Red ([1]; red channel, final concentration 18.3 mM, ratio to 40% sucrose control): 2.97 ± 0.12
10 | Nc1ncnc2c1ncn2[C@@H]1O[C@@H]2COP(=O)(O)O[C@H]2[C@H]1O [Compound 3, cyclic Adenosine Monophosphate] | 2.04 ± 0.15 | 1.97 ± 0.10 | 
11 | inositol triphosphate [Compound 4] | 1.37 ± 0.00 | 1.39 ± 0.01 | 
12 | PI(4)P_18:1 [Compound 18] | 0.82 ± 0.10 | 0.84 ± 0.08 | 
13 | O=C(O)CC(O)(CC(=O)O)C(=O)O [Compound 21, Citric acid] | 0.74 ± 0.06 | 0.78 ± 0.02 | 
14 | O=P(O)(O)O[C@@H]1[C@H](O)[C@H](O)[C@@H](OP(=O)(O)O)[C@H](OP(=O)(O)O)[C@H]1O [Compound 20, IP3(1,4,5)] | 0.60 ± 0.02 | 0.67 ± 0.03 | 
15 | PS_18:1 [Compound 22] | 0.65 ± 0.02 | 0.63 ± 0.05 | 
16 | c1ccc2c(c1)[I+]c1ccccc1-2 [Compound 11, Diphenyl iodide chloride] | 1.53 ± 0.14 | 1.55 ± 0.13 | 
17 | PI(3)P_18:1 [Compound 19] | 0.62 ± 0.06 | 0.63 ± 0.05 | 
18 | S=C([S-])OC1CC2CC1C1CCCC21.[K+] (stereo not shown) [Compound 16] | 1.12 ± 0.10 | 1.14 ± 0.10 | 
19 | [Ca+2].[Cl-].[Cl-] [Compound 1, calcium chloride] |  |  | Relative ROS Level Bright [1]: 4.03 ± 0.24 and 3.11 ± 0.23; Relative ROS Level Red [1]: 3.81 ± 0.21 and 3.01 ± 0.23; effect on relative ROS level (in words) [1]: most obvious effect on the increase of ROS level
20 | Cc1ccc2c(c1)C(=O)C1(O)CCN(c3ccccc3)C1=N2 (stereo not shown) [Compound 10, Blebbistatin] | 1.37 ± 0.14 | 1.35 ± 0.17 | 
21 | PI(3,5)PP_18:1 [Compound 17] | 0.82 ± 0.11 | 0.88 ± 0.08 | 
22 | Lecithin PC_18:1 [Compound 15] | 1.21 ± 0.18 | 1.19 ± 0.17 | 
23 | C/C1=C/C(=O)O[C@@H]2C[C@@H](CC[C@H](C)/C=C\C=C\CC1)O[C@@](O)([C@@H]1CSC(=O)N1)C2 [Compound 9, Latrunculin A] | 1.37 ± 0.00 | 1.35 ± 0.05 | 
24 | Cn1cc[nH]c1=S [Compound 12, Methimazole] |  |  | Proportion of fragmentation compared with control group [2]: higher proportion of fragmentation
25 | PA_18:1 [Compound 25] | 0.33 ± 0.02 | 0.34 ± 0.01 | 
26 | choline phosphate [Compound 14] |  |  | Relative ROS Level Bright [1]: 1.27 ± 0.11; Relative ROS Level Red [1]: 1.28 ± 0.08
27 | C/C1=C/C(=O)O[C@@H]2C[C@@H](CC[C@H](C)/C=C\CC1)O[C@@](O)([C@@H]1CSC(=O)N1)C2 [Compound 8, Latrunculin B] | 1.64 ± 0.10 | 1.66 ± 0.06 | 
